Test results as given in ChEMBL document CHEMBL4316582, “Nitro-Group-Containing Drugs” (J Med Chem, 2019).
Converted amounts (≈) assume the structure as drawn.

Experiments:
[1] = test system: NCI-H460; experiment: Cytotoxicity against human NCI-H460 cells assessed as reduction in cell viability after 2 hrs under hypoxic conditions by Alamar blue assay; type: functional, cell-based; details: NCI-H460, 2 h
[2] = test system: NCI-H460; experiment: Cytotoxicity against human NCI-H460 cells assessed as reduction in cell viability after 2 hrs under normoxic conditions by Alamar blue assay; type: functional, cell-based; details: NCI-H460, 2 h
[3] = test system: Hep 3B2; experiment: Cytotoxicity against human Hep3B cells after 24 hrs under hypoxic condition by MTS assay; type: functional, cell-based
[4] = test system: Hep 3B2; experiment: Cytotoxicity against human Hep3B cells after 24 hrs by MTS assay; type: functional, cell-based
[5] = target: Epidermal growth factor receptor (Homo sapiens, UniProt P00533); experiment: Inhibition of erbB1 (unknown origin) using FRET-capable peptide substrate by FRET assay
[6] = test system: NCI-H460; experiment: Antiproliferative activity against human NCI-H460 cells; type: functional, cell-based
[7] = test system: NCI-H460; experiment: Antiproliferative activity against human NCI-H460 cells in presence of O2; type: functional, cell-based
[8] = test system: NCI-H460; experiment: Antiproliferative activity against human NCI-H460 cells in presence of N2; type: functional, cell-based
[9] = test system: NCI-H460; experiment: Ratio of IC50 for antiproliferative activity against human NCI-H460 cells in presence of O2 to antiproliferative activity against human NCI-H460 cells in presence of N2; type: functional
[10] = test system: HT-29; experiment: Cytotoxicity against human HT-29 cells assessed as reduction in cell viability after 2 hrs by Alamar blue assay; type: functional, cell-based; details: HT-29, 2 h
[11] = test system: NCI-H460; experiment: Cytotoxicity against human NCI-H460 cells assessed as reduction in cell viability after 2 hrs by Alamar blue assay; type: functional, cell-based; details: NCI-H460, 2 h
[12] = Cytotoxicity against human MiaPaCa cells assessed as reduction in cell viability after 2 hrs by Alamar blue assay; type: functional, cell-based; details: MIA PaCa-2, 2 h
[13] = test system: Mycobacterium tuberculosis; experiment: Antitubercular activity against drug-sensitive Mycobacterium tuberculosis; type: functional
[14] = test system: Mycobacterium tuberculosis; experiment: Antitubercular activity against Mycobacterium tuberculosis; type: functional
[15] = test system: HT-29; experiment: Cytotoxicity against human HT-29 cells; type: functional, cell-based
[16] = test system: SK-OV-3; experiment: Cytotoxicity against human SKOV3 cells; type: functional, cell-based

Sequence of Epidermal growth factor receptor (P00533 whole entry): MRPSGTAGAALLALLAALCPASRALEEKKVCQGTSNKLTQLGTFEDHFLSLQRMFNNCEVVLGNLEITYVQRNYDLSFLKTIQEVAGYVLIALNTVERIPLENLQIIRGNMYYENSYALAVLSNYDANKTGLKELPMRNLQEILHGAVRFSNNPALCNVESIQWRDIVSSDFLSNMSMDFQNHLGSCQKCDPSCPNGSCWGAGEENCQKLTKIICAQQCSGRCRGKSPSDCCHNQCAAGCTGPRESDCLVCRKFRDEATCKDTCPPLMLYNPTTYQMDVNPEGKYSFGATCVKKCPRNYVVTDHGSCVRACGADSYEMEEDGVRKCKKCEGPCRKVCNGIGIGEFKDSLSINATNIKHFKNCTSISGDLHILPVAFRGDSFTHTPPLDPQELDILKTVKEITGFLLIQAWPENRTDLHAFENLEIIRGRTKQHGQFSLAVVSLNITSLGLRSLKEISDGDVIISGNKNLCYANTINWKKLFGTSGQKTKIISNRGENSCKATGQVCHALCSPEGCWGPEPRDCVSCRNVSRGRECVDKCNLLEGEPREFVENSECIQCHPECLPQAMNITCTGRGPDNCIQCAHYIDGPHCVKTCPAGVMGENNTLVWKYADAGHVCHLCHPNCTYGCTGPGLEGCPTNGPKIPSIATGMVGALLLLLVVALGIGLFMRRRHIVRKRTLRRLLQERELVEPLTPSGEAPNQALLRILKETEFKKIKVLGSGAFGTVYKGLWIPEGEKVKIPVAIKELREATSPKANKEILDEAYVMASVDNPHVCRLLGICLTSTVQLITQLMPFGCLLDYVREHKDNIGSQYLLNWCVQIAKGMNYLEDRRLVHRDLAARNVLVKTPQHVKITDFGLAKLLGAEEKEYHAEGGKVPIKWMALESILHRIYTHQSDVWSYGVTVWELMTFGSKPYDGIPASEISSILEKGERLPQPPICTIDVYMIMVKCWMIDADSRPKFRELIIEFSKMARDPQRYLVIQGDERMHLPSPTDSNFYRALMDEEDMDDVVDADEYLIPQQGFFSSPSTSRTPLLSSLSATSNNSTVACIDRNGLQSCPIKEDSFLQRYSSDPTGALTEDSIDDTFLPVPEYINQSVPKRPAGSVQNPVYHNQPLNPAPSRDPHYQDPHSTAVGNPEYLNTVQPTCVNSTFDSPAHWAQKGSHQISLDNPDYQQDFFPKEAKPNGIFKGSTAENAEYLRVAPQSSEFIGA

Molecule `COc1cccc2c1C(=O)c1c(O)c3c(c(O)c1C2=O)C[C@@](O)(C(C)=O)C[C@@H]3O[C@H]1C[C@H](n2ccnc2[N+](=O)[O-])[C@H](O)[C@H](C)O1` has an IC50 [1] of 12 nM and an IC50 [2] of 2300 nM.
In the case of `COc1ccc(C[C@@H](C)[C@@H](C)Cc2ccc(OCCOCCOCCOCCn3ccnc3[N+](=O)[O-])c(OC)c2)cc1OC`, the IC50 [3] is reported as 13400 nM and the IC50 [4] is reported as 13400 nM.
Work on `C[N+](C)(C/C=C/C(=O)Nc1ccc2ncnc(Nc3cccc(Br)c3)c2c1)Cc1ccccc1[N+](=O)[O-]` yielded an IC50 [5] of 0.22 to 0.56 nM.
Work on `N#Cc1cc(COP(=O)(NCCBr)NCCBr)sc1[N+](=O)[O-]` yielded an IC50 [6] of 20 nM, an IC50 [7] of 10 nM and an IC50 [8] of 6 nM.
In the case of `NC(=O)c1cnc(N2CC2)c([N+](=O)[O-])c1`, the “Ratio IC50” value [9] is reported as 62, the IC50 [7] is reported as 143000 nM and the IC50 [8] is reported as 2300 nM.
Molecule `CC#Cc1c(OC)ccc2c(C(=O)c3cc(OC)c(OC)c(OC)c3)nn(Cn3cc[n+](Cc4ccc([N+](=O)[O-])o4)c3)c12` has an IC50 [10] of 1 nM and an IC50 [11] of 14 nM.
With `CC#Cc1c(OC)ccc2c(C(=O)c3cc(OC)c(OC)c(OC)c3)nn(C[N+](C)(C)Cc3c(-c4ccc(Br)o4)nc([N+](=O)[O-])n3C)c12` the IC50 [10] was 17 nM and the IC50 [11] was 18 nM.
`CC(=O)O[C@H]1C(=O)[C@@]2(C)[C@H]([C@H](OC(=O)c3ccccc3)[C@]3(O)C[C@H](OC(=O)[C@H](OC(=O)N(C)CCN(C)C(=O)OC(C)c4ccc([N+](=O)[O-])c(Oc5ccc6ncccc6c5)c4)[C@@H](NC(=O)c4ccccc4)c4ccccc4)C(C)=C1C3(C)C)[C@]1(OC(C)=O)CO[C@@H]1C[C@@H]2O` (stereo partly specified) showed an IC50 [6] of 30 nM.
With `Cn1c(C[N+](C)(C)C/C=C/C(=O)Nc2ccc3ncnc(Nc4cccc(Br)c4)c3c2)ccc1[N+](=O)[O-]` the IC50 [5] was 0.22 to 0.56 nM.
Molecule `CC#Cc1c(OC)ccc2c(C(=O)c3cc(OC)c(OC)c(OC)c3)nn(C[N+](C)(C)Cc3ccc([N+](=O)[O-])o3)c12` has an IC50 [10] of 12 nM and an IC50 [11] of 45 nM.
In the case of `NC(=O)c1cc(N2CC2)ncc1[N+](=O)[O-]`, the IC50 [7] is reported as 19600 nM and the IC50 [8] is reported as 1100 nM.
Work on `COc1ccc(C[C@@H](C)[C@@H](C)Cc2ccc(OC)c(OCCOCCOCCOCCn3cnc([N+](=O)[O-])c3)c2)cc1OC` yielded an IC50 [3] of 64300 nM and an IC50 [4] of 13000 nM.
Molecule `Cn1cnc([N+](=O)[O-])c1C[N+](C)(C)C/C=C/C(=O)Nc1ccc2ncnc(Nc3cccc(Br)c3)c2c1` has an IC50 [5] of 0.22 to 0.56 nM.
For `COc1ccc(C[C@@H](C)[C@@H](C)Cc2ccc(OCCOCCOCCOCCn3cnc([N+](=O)[O-])c3)c(OC)c2)cc1OC`, the IC50 [3] was 52100 nM and the IC50 [4] was 12500 nM.
With `C=Cc1nc([N+](=O)[O-])n(C)c1C[N+](C)(C)Cn1nc(C(=O)c2cc(OC)c(OC)c(OC)c2)c2ccc(OC)c(C#CC)c21` the IC50 [10] was 7 nM, the IC50 [11] was 48 nM and the IC50 [12] was 20 nM.
For `CC(=O)O[C@H]1C(=O)[C@@]2(C)[C@H]([C@H](OC(=O)c3ccccc3)[C@]3(O)C[C@H](OC(=O)[C@H](OC(=O)N(C)CCN(C)C(=O)OCc4ccc([N+](=O)[O-])c(Oc5ccc6ncccc6c5)c4)[C@@H](NC(=O)c4ccccc4)c4ccccc4)C(C)=C1C3(C)C)[C@]1(OC(C)=O)CO[C@@H]1C[C@@H]2O`, the IC50 [6] was 30 nM.
Work on `CC(OP(=O)(NCCBr)NCCBr)c1ccc([N+](=O)[O-])s1` (stereo unspecified) yielded an IC50 [6] of 500 nM, an IC50 [7] of 200 nM and an IC50 [8] of 30 nM.
For `NC(=O)c1ccc([N+](=O)[O-])c(N2CC2)n1`, the “Ratio IC50” value [9] was 35.9, the IC50 [7] was 61000 nM and the IC50 [8] was 1700 nM.
With `CC#Cc1c(OC)ccc2c(C(=O)c3cc(OC)c(OC)c(OC)c3)nn(C[N+](C)(C)Cc3c(CCC)nc([N+](=O)[O-])n3C)c12` the IC50 [10] was 18 nM and the IC50 [11] was 40 nM.
Work on `FC(F)(F)Oc1ccc(CO[C@@H]2COc3nccn3C2)cc1` yielded an MIC [13] of 0.039 to 0.531 µg/mL (≈ 0.124 to 1.69 µM) and an MIC [14] of less than 2.8 µM.
Work on `COc1cc2cc(C(=O)N3CC(CCl)c4c3cc([N+](=O)[O-])c3c(C(C)=O)cccc43)[nH]c2c(OC)c1OC` (stereo unspecified) yielded an IC50 [15] of 680 nM and an IC50 [16] of 500 nM.
For `CN(C)CCOc1ccc2[nH]c(C(=O)N3CC(CCl)c4c3cc([N+](=O)[O-])c3c(C#N)cccc43)cc2c1` (stereo unspecified), the IC50 [15] was 120 nM and the IC50 [16] was 170 nM.
`COC(=O)c1ccc2c3c(cc([N+](=O)[O-])c2c1)N(C(=O)c1cc2cc(OCCN(C)C)ccc2[nH]1)CC3CCl` (stereo unspecified) gave an IC50 [15] of 320 nM and an IC50 [16] of 440 nM.
Molecule `CC(=O)c1ccc2c([N+](=O)[O-])cc3c(c2c1)C(CCl)CN3C(=O)c1cc2cc(OCCN(C)C)ccc2[nH]1` (stereo unspecified) has an IC50 [15] of 150 nM and an IC50 [16] of 210 nM.
In the case of `Cn1c(COP(=O)(NCCBr)NCCBr)cnc1[N+](=O)[O-]` [EVOFOSFAMIDE], the IC50 [6] is reported as greater than 100000 nM, the IC50 [7] is reported as 25000 nM and the IC50 [8] is reported as 2000 nM.
